Source: patent US6150361A, “Triazineone compounds for treating diseases due to sarcosystis, neospora and toxoplasma” (Bayer Corporation, priority 1998, dated 2000)
“And” between values parts separate entries of the source, which are not always exact repeats. Equal values may be shown once. “Also recorded” adds a separate entry of the source.

How the values were obtained:
[1] = Pharmacokinetics of a single oral dose of Toltrazuril in horses (blood levels); type: in vivo; settings: single oral dose of Toltrazuril 10 mg/kg
Description: A pharmacokinetic study was conducted in horses comparing blood levels of Toltrazuril, Ponazuril and Toltrazuril Sulfoxide at various times post a single dose of Toltrazuril. All horses received a single dose of 10 mg/kg, which was administered orally as a suspension. Blood samples were drawn at the time of treatment (0) and at 0.25, 0.5, 1, 2, 4, 6, 12, 24, 48 and 72 hours post treatment. […] This was an indication that Ponazuril, alone, would produce acceptable blood levels that are envisioned to pass the blood-brain barrier, a characteristic required to treat neurological diseases such as those caused by Sarcocystis neurona, Toxoplasma gondii, Neospora caninum and Neospora

Sarcocystis neurona = assay: Microtiter Monolayer Disruption Assay (MMDA), Sarcocystis neurona; type: cell-based, Sarcocystis neurona strain SN3; settings: BT cells
Description: (§1) In order to determine the scope of protection provided by Ponazuril, in vitro testing was conducted. The following strains of parasites were evaluated for their sensitivity to this compound: Strain SN3 of Sarcocystis neurona; strain SF1 of Sarcocystis falcatula; strain RH of Toxoplasma gondii; and the NC-1 strain of Neospora caninum. […]
(§2) Bovine turbinate (BT) cells were used for all in vitro studies. Cells were grown to confluency in 25 cm^2 flasks in RMPI 1640 media supplemented with 10% v/v fetal bovine serum (FBS), 100 Units penicillin (G/mL), […] streptomycin/mL and 5×10^-2 mM 2-mercpatoethanol. After cell confluence was obtained, cells were maintained in the same media with reduced FBS (2% v/v). Cell cultures were incubated at 37 C. in a humidified atmosphere containing 5% carbon dioxide and 95% air.
(§3) For growth of parasites, BT cell monolayers were infected with parasites and examined with an inverted microscope for the development of lesions (cytopathic effect, "CPE") or the presence of many extracellular merozoites. Once lesions were observed, or many extracellular parasites were present, the monolayer was scraped with the tip of a 5 mL pipette and 1 to 3 drops of the merozoite-containing fluid was transferred to two flasks of fresh BT cells. Merozoites of S. neurona and S. falcatula were passaged in this manner every 5 to 10 days while the tachyzoites of T. gondii and N. caninum were passaged every 3 to 4 days.
The assay used to determine the effectiveness of Ponazuril was the Microtiter Monolayer Disruption Assay (MMDA). This assay was used to determine if the parasites or compound were toxic for BT cells. Flat bottomed 96-well microtiter plates were inoculated with BT cells and the resulting monolayers were used to determine the effects of Toltrazuril and Ponazuril on merozoite production as measured by CPE (plaque formation). Monolayers were inoculated with parasites (S. neurona or S. falcatula at a count of 50,000/well, T. gondii at a level of 10,000/well, and N. caninum at 20,000/well. All wells were inoculated with the test compound 2 hours after infection. Untreated and […] monolayer wells served as parasite controls and uninfected agent treated BT cells served as toxicity controls. Each treatment was examined in replicates of 6. Each well was visually monitored daily and the assay was stopped when 90-100% of the untreated merozoite infected cells had lysed (90-100% CPE). All wells of the plates were rinsed in Phosphate Buffered Saline (PBS) and fixed in 100% methanol for 5 minutes after which they were stained in crystal violet solution. […]

Neospora caninum NC-1 = assay: Microtiter Monolayer Disruption Assay (MMDA), Neospora caninum; type: cell-based, Neospora caninum strain NC-1; settings: BT cells
Description: as §1, §2, §3
(§4) The assay used to determine the effectiveness of Ponazuril was the Microtiter Monolayer Disruption Assay (MMDA). This assay was used to determine if the parasites or compound were toxic for BT cells. Flat bottomed 96-well microtiter plates were inoculated with BT cells and the resulting monolayers were used to determine the effects of Toltrazuril and Ponazuril on merozoite production as measured by CPE (plaque formation). […]

Toxoplasma gondii = assay: Microtiter Monolayer Disruption Assay (MMDA), Toxoplasma gondii; type: cell-based, Toxoplasma gondii strain RH; settings: BT cells
Description: as §1, §2, §3, §4

[2] = Drug levels in serum after repeated doses of Toltrazuril in horses; type: in vivo; parameters: unit not given here; settings: for AVG drug level in serum, 48 Hrs / AVG drug level in serum, 96 Hrs / AVG drug level in serum, 240 Hrs: group average; for Drug level in serum, 48 Hrs / Drug level in serum, 96 Hrs / Drug level in serum, 240 Hrs: individual horse
Description: (§5) This experiment was conducted in order to determine whether triazineones such as Toltrazuril can pass the blood-brain barrier. Normal horses were divided into three groups of three horses per group. Group 1 horses received Toltrazuril administered orally as a 5% suspension at a dose level of 2.5 mg/Kg. Group 2 horses received Toltrazuril administered orally as a 5% suspension at a dose level of 5.0 mg/Kg. Group 3 horses received Toltrazuril administered orally as a 5% suspension at a dose level of 7.5 mg/Kg. The dosing was repeated daily for 10 days. Blood samples were drawn at 48, 96 and 240 hours and the concentration of Toltrazuril, Toltrazuril sulfoxide and Ponazuril in the serum was measured. Ten days after the start of the treatment (Day 10), a sample of cerebral spinal fluid was removed from each horse and the concentrations of Toltrazuril, Toltrazuril Sulfoxide and Ponazuril were again measured in these samples. The concentrations of Toltrazuril, Toltrazuril Sulfoxide and Ponazuril in the serum and cerebral spinal fluid are reported in TABLES 5a and 5b.

[3] = Passing of the blood-brain barrier in horses; type: in vivo; settings: after oral Toltrazuril daily for 10 days
Description: as §5

[4] = 0.1 μg/mL, read-out: Percent Inhibition of Cell Destruction, 0.1 μg/mL
[5] = 0.001 μg/mL, read-out: Percent Inhibition of Cell Destruction, 0.001 μg/mL
[6] = 1.0 μg/mL, read-out: Percent Inhibition of Cell Destruction, 1.0 μg/mL
[7] = Toltrazuril 2.5 mg/Kg oral daily for 10 days
[8] = Toltrazuril 5.0 mg/Kg oral daily for 10 days
[9] = Toltrazuril 7.5 mg/Kg oral daily for 10 days

Cc1cc(-n2c(=O)[nH]c(=O)n(C)c2=O)ccc1Oc1ccc(S(=O)(=O)C(F)(F)F)cc1 [Ponazuril]
concentration at 0.25 h ([1]; horse, blood, po, 10 mg/kg, suspension, 0.25 h post treatment, one value per horse (A-F), read-out: Concentration in mg/l of Blood, 0.25 hours): 0.01 mg/L
concentration at 24 h ([1]; horse, blood, po, 10 mg/kg, suspension, 24 h post treatment, one value per horse (A-F), read-out: Concentration in mg/l of Blood, 24 hours): 0.324 mg/L
levels in serum/bloodstream of horses receiving Toltrazuril (in words) [1]: relatively high levels
Concentration in mg/l of Blood, 0.25 hours ([1]; suspension, 0.25 h post treatment, one value per horse (A-F), 10 mg/kg, 15 min): < 0.01 mg/L
Concentration in mg/l of Blood, 6 hours ([1]; suspension, 6 h post treatment, one value per horse (A-F), 10 mg/kg, 360 min): 0.061 mg/L
Concentration in mg/l of Blood, 24 hours ([1]; suspension, 24 h post treatment, one value per horse (A-F), 10 mg/kg, 1440 min): 0.255 mg/L and 0.315 mg/L and 0.231 mg/L and 0.192 mg/L
inhibition at 0.1 µg/mL (Sarcocystis neurona; [4]): 0%
inhibition at 1 µg/mL (Sarcocystis neurona; 1 μg/mL, read-out: Percent Inhibition of Cell Destruction, 1 μg/mL): 40%
inhibition at 5 µg/mL (Sarcocystis neurona; 5.0 μg/mL, read-out: Percent Inhibition of Cell Destruction, 5.0 μg/mL): 90%
inhibition at 10 µg/mL (Sarcocystis neurona; 10 μg/mL, read-out: Percent Inhibition of Cell Destruction, 10 μg/mL): 100%
inhibition at 0.001 µg/mL (Neospora caninum NC-1; [5]): 3%
inhibition at 0.01 µg/mL (Neospora caninum NC-1; 0.01 μg/mL, read-out: Percent Inhibition of Cell Destruction, 0.01 μg/mL): 13%
inhibition at 1 µg/mL (Neospora caninum NC-1; [6]): 100%
inhibition at 0.001 µg/mL (Toxoplasma gondii; [5]): 11%
inhibition at 0.1 µg/mL (Toxoplasma gondii; [4]): 100%
inhibition at 1 µg/mL (Toxoplasma gondii; [6]): 100%
AVG drug level in serum, 48 Hrs [2, 7]: 1.41
AVG drug level in serum, 96 Hrs [2, 7]: 1.76
AVG drug level in serum, 240 Hrs [2, 7]: 3.00
Drug level in serum, 48 Hrs [2, 7]: 0.29 and 0.24 and 3.70
Drug level in serum, 96 Hrs [2, 7]: 0.99 and 1.15 and 3.13
Drug level in serum, 240 Hrs [2, 7]: 2.61 and 2.36 and 4.04
AVG drug level in serum, 48 Hrs [2, 8]: 0.53
AVG drug level in serum, 96 Hrs [2, 8]: 2.26
AVG drug level in serum, 240 Hrs [2, 8]: 5.02
Drug level in serum, 48 Hrs [2, 8]: 0.48 and 0.63
Drug level in serum, 96 Hrs [2, 8]: 2.09 and 2.03 and 2.66
Drug level in serum, 240 Hrs [2, 8]: 5.44 and 2.03 and 5.61
AVG drug level in serum, 48 Hrs [2, 9]: 2.55
AVG drug level in serum, 96 Hrs [2, 9]: 2.89
AVG drug level in serum, 240 Hrs [2, 9]: 6.58
Drug level in serum, 48 Hrs [2, 9]: 6.35 and 0.78 and 0.52
Drug level in serum, 96 Hrs [2, 9]: 2.69 and 2.89 and 3.09
Drug level in serum, 240 Hrs [2, 9]: 6.31 and 6.37 and 7.06
crossing of the blood-brain barrier [3]: effectively cross the blood-brain barrier; also recorded: crosses this barrier more effectively than does Toltrazuril
